According to ChEMBL document CHEMBL3232809, “Synthesis, antibiotic activity and structure-activity relationship study of some 3-enaminetetramic acids” (2014):

Columns and labels:
Format in all cases: functional
Streptococcus pneumoniae [1] = assay: Antimicrobial activity against penicillin- and erythromycin-resistant Streptococcus pneumoniae
Streptococcus pneumoniae [2] = assay: Antimicrobial activity against penicillin- and erythromycin-resistant Streptococcus pneumoniae in presence of 2.5% horse blood
Staphylococcus aureus [3] = assay: Antimicrobial activity against methicillin-sensitive Staphylococcus aureus ATCC 13709
Staphylococcus aureus [4] = assay: Antimicrobial activity against vancomycin-susceptible Staphylococcus aureus ATCC 25923
Staphylococcus aureus [5] = assay: Antimicrobial activity against Staphylococcus aureus Oxford
Staphylococcus aureus [6] = assay: Antimicrobial activity against methicillin-resistant Staphylococcus aureus
Enterococcus faecalis = assay: Antimicrobial activity against vancomycin-susceptible Enterococcus faecalis ATCC 29212
Enterococcus faecium = assay: Antimicrobial activity against vancomycin-resistant Enterococcus faecium
Streptococcus pneumoniae [7] = assay: Antimicrobial activity against erythromycin-susceptible Streptococcus pneumoniae ATCC 49619
Haemophilus influenzae [8] = assay: Antimicrobial activity against Haemophilus influenzae ATCC 31517 MMSA
Haemophilus influenzae [9] = assay: Antimicrobial activity against LS2 Efflux knock-out Haemophilus influenzae
Escherichia coli [10] = assay: Antimicrobial activity against Escherichia coli ATCC 25922
Escherichia coli [11] = assay: Antimicrobial activity against Escherichia coli 50
Pseudomonas aeruginosa = assay: Antimicrobial activity against Pseudomonas aeruginosa ATCC 27853
Escherichia coli [12] = assay: Antimicrobial activity against Escherichia coli 49

Measured: MIC

CCCCCCC/C=C/C(=O)N1C(=O)/C(=C(\C)Nc2ccc(N3CCOCC3)cc2)C(=O)C1CC(C)C (configuration not stated)
> 32 µg/mL: all assays above

CCCCCCC(=O)N1CC(=O)/C(=C(\CCCOc2ccccc2)NCCCOC(C)C)C1=O
> 32 µg/mL: all assays above

COCCOC(=O)[C@]12CO[C@H](C(C)(C)C)N1C(=O)/C(=C(\C)NCCOc1ccccc1)C2=O
> 32 µg/mL: all assays above

CSCCC1C(=O)/C(=C(\CC23CC4CC(CC(C4)C2)C3)NCC(C)(C)CN(C)C)C(=O)N1C(C)=O (configuration not stated)
> 32 µg/mL: all assays above

CC(=O)NC[C@H]1CN(c2ccc(N3CCOCC3)c(F)c2)C(=O)O1 [LINEZOLID]
2 µg/mL: Enterococcus faecium
4 µg/mL: Haemophilus influenzae [9]
16 µg/mL: Haemophilus influenzae [8]

O=C1CNC(=O)/C1=C(\NCc1ccccc1)c1cccc2ccccc12
> 32 µg/mL: all assays above

CC1CCCCN1CCCN/C(CC12CC3CC(C)(CC(C)(C3)C1)C2)=C1/C(=O)[C@@H]2CCCC(=O)N2C1=O (some centres not stated)
> 32 µg/mL: all assays above

CCCCCCCCCCCCC/C(NCCCNC(=O)COCC(=O)O)=C1\C(=O)CN(CCCCCC)C1=O
64 µg/mL: Streptococcus pneumoniae [2]
> 32 µg/mL: Escherichia coli [10] | Escherichia coli [11] | Pseudomonas aeruginosa | Escherichia coli [12]
8 µg/mL: Streptococcus pneumoniae [7]
16 µg/mL: Streptococcus pneumoniae [1] | Enterococcus faecalis | Enterococcus faecium
> 64 µg/mL: all other assays above

O=C1CNC(=O)/C1=C(\NC1CCCCC1)c1cccc2ccccc12
> 32 µg/mL: all assays above

CCCCCC/C(=C1/C(=O)N2[C@@H](C(C)(C)C)OC[C@]2(C(=O)OC)C1=O)N1CCCCC1
> 32 µg/mL: all assays above

COC(=O)[C@]12CO[C@H](C(C)(C)C)N1C(=O)/C(=C(/CCCOc1ccccc1)NCCCOC(C)C)C2=O
> 32 µg/mL: all assays above

CCCCCCCCCCC/C(Nc1ccc(NC(=O)COCC(=O)O)cc1)=C1\C(=O)CN(CCCCCC)C1=O
> 32 µg/mL: Escherichia coli [10] | Escherichia coli [11] | Pseudomonas aeruginosa | Escherichia coli [12]
2 µg/mL: Streptococcus pneumoniae [1] | Streptococcus pneumoniae [7]
> 64 µg/mL: all other assays above

CCCCCCCCCCC/C(NCCCOC(C)C)=C1/C(=O)N[C@@H](CCCC(=O)NCCCOC(C)C)C1=O
8 µg/mL: Haemophilus influenzae [9]
16 µg/mL: Streptococcus pneumoniae [1]
> 32 µg/mL: Escherichia coli [10] | Escherichia coli [11] | Pseudomonas aeruginosa | Escherichia coli [12]
> 64 µg/mL: all other assays above

CSCCC1C(=O)/C(=C(\CC23CC4CC(C)(CC(C)(C4)C2)C3)NCC(C)(C)CN(C)C)C(=O)N1C(C)=O (configuration not stated)
4 µg/mL: Haemophilus influenzae [9]
> 32 µg/mL: Escherichia coli [10] | Escherichia coli [11] | Pseudomonas aeruginosa | Escherichia coli [12]
> 64 µg/mL: all other assays above

CCCCCCCCCN/C(C)=C1/C(=O)N2[C@@H](C(C)(C)C)OC[C@]2(C(=O)OC)C1=O
> 32 µg/mL: all assays above

C/C(NCCOc1ccccc1Cl)=C1/C(=O)CN(C(=O)OC(C)(C)C)C1=O
> 32 µg/mL: Escherichia coli [10] | Escherichia coli [11] | Pseudomonas aeruginosa | Escherichia coli [12]
32 µg/mL: Haemophilus influenzae [9]
not listed: Staphylococcus aureus [3]
> 64 µg/mL: all other assays above

O=C(O)c1cn(C2CC2)c2cc(N3CCNCC3)c(F)cc2c1=O [CIPROFLOXACIN]
32 µg/mL: Enterococcus faecium
0.12 µg/mL: Staphylococcus aureus [3] | Staphylococcus aureus [5]
0.5 µg/mL: Staphylococcus aureus [4] | Haemophilus influenzae [8]
1 µg/mL: Streptococcus pneumoniae [1] | Streptococcus pneumoniae [2] | Enterococcus faecalis | Streptococcus pneumoniae [7]
≤ 0.06 µg/mL: Haemophilus influenzae [9]
